Measured values as given in PMC9569420 (Communications Biology, 2022).
Several values for one entry are separate records, joined by “and”; a condition that tells them apart may be missing. Equal entries are not always repeated.

Experiments:
HaCat cells = test: cell proliferation and viability, ~50% confluence; details: 0.1–100 μM, 24 and 72 h; except 72 h at 100 μM
TAK1 = biological target: T1, TAK1 (Homo sapiens, UniProt O43318); test: HotSpot kinase assay; format: biochemical; details: read-out: % Enzyme Activity (relative to DMSO controls)
T1 construct: purchased Reaction Biology Corporation

MDCK-MDR1 cell = details: 5 µM
LYN B = biological target: T2, LYN B (Homo sapiens, UniProt P07948); test: HotSpot kinase assay; format: biochemical; details: read-out: % Enzyme Activity (relative to DMSO controls)
T2 construct: purchased Reaction Biology Corporation

EIF2AK2 = biological target: T3, EIF2AK2 (Homo sapiens, UniProt P19525); test: HotSpot kinase assay; format: biochemical; details: read-out: % Enzyme Activity (relative to DMSO controls)
T3 construct: purchased Reaction Biology Corporation

TESK2 = biological target: T4, TESK2 (Homo sapiens, UniProt Q96S53); test: HotSpot kinase assay; format: biochemical; details: read-out: % Enzyme Activity (relative to DMSO controls)
T4 construct: purchased Reaction Biology Corporation

PAK1 = biological target: T5, PAK1 (Homo sapiens, UniProt Q13153); test: HotSpot kinase assay; format: biochemical; details: read-out: % Enzyme Activity (relative to DMSO controls)
T5 construct: purchased Reaction Biology Corporation

MUSK = biological target: T6, MUSK (Homo sapiens, UniProt O15146); test: HotSpot kinase assay; format: biochemical; details: read-out: % Enzyme Activity (relative to DMSO controls)
T6 construct: purchased Reaction Biology Corporation

PKCmu/PRKD1 = biological target: T7, PKCmu/PRKD1 (Homo sapiens, UniProt Q15139); test: HotSpot kinase assay; format: biochemical; details: read-out: % Enzyme Activity (relative to DMSO controls)
T7 construct: purchased Reaction Biology Corporation

CDK6/cyclin D1 = biological target: T8, CDK6/cyclin D1 (Homo sapiens, UniProt Q00534); test: HotSpot kinase assay; format: biochemical; details: read-out: % Enzyme Activity (relative to DMSO controls)
T8 construct: purchased Reaction Biology Corporation

ERK2/MAPK1 = biological target: T9, ERK2/MAPK1 (Homo sapiens, UniProt P28482); test: HotSpot kinase assay; format: biochemical; details: read-out: % Enzyme Activity (relative to DMSO controls)
T9 construct: purchased Reaction Biology Corporation

TNIK = biological target: T10, TNIK (Homo sapiens, UniProt Q9UKE5); test: HotSpot kinase assay; format: biochemical; details: read-out: % Enzyme Activity (relative to DMSO controls)
T10 construct: purchased Reaction Biology Corporation

SNARK/NUAK2 = biological target: T11, SNARK/NUAK2 (Homo sapiens, UniProt Q9H093); test: HotSpot kinase assay; format: biochemical; details: read-out: % Enzyme Activity (relative to DMSO controls)
T11 construct: purchased Reaction Biology Corporation

MAK = biological target: T12, MAK (Homo sapiens, UniProt P20794); test: HotSpot kinase assay; format: biochemical; details: read-out: % Enzyme Activity (relative to DMSO controls)
T12 construct: purchased Reaction Biology Corporation

PHKg1 = biological target: T13, PHKg1 (Homo sapiens, UniProt Q16816); test: HotSpot kinase assay; format: biochemical; details: read-out: % Enzyme Activity (relative to DMSO controls)
T13 construct: purchased Reaction Biology Corporation

ABL1 = biological target: T14, ABL1 (Homo sapiens, UniProt P00519); test: biochemical
T14 construct: purchased Reaction Biology Corporation

STK22D/TSSK1 = biological target: T15, STK22D/TSSK1 (Homo sapiens, UniProt Q9BXA7); test: HotSpot kinase assay; format: biochemical; details: read-out: % Enzyme Activity (relative to DMSO controls)
T15 construct: purchased Reaction Biology Corporation

NEK11 = biological target: T16, NEK11 (Homo sapiens, UniProt Q8NG66); test: HotSpot kinase assay; format: biochemical; details: read-out: % Enzyme Activity (relative to DMSO controls)
T16 construct: purchased Reaction Biology Corporation

Haspin = biological target: T17, Haspin (Homo sapiens, UniProt Q8TF76); test: HotSpot kinase assay; format: biochemical; details: read-out: % Enzyme Activity (relative to DMSO controls)
T17 construct: purchased Reaction Biology Corporation

AKT3 = biological target: T18, AKT3 (Homo sapiens, UniProt Q9Y243); test: biochemical
T18 construct: purchased Reaction Biology Corporation

CAMK2b = biological target: T19, CAMK2b (Homo sapiens, UniProt Q13554); test: HotSpot kinase assay; format: biochemical; details: read-out: % Enzyme Activity (relative to DMSO controls)
T19 construct: purchased Reaction Biology Corporation

GCK/MAP4K2 = biological target: T20, GCK/MAP4K2 (Homo sapiens, UniProt Q12851); test: HotSpot kinase assay; format: biochemical; details: read-out: % Enzyme Activity (relative to DMSO controls)
T20 construct: purchased Reaction Biology Corporation

BLK = biological target: T21, BLK (Homo sapiens, UniProt P51451); test: HotSpot kinase assay; format: biochemical; details: read-out: % Enzyme Activity (relative to DMSO controls)
T21 construct: purchased Reaction Biology Corporation

P38g = biological target: T22, P38g (Homo sapiens, UniProt P53778); test: HotSpot kinase assay; format: biochemical; details: read-out: % Enzyme Activity (relative to DMSO controls)
T22 construct: purchased Reaction Biology Corporation

PLK3 = biological target: T23, PLK3 (Homo sapiens, UniProt Q9H4B4); test: HotSpot kinase assay; format: biochemical; details: read-out: % Enzyme Activity (relative to DMSO controls)
T23 construct: purchased Reaction Biology Corporation

RAF1 = biological target: T24, RAF1 (Homo sapiens, UniProt P04049); test: HotSpot kinase assay; format: biochemical; details: read-out: % Enzyme Activity (relative to DMSO controls)
T24 construct: purchased Reaction Biology Corporation

c-MET = biological target: T25, c-MET (Homo sapiens, UniProt P08581); test: biochemical; details: read-out: % Enzyme Activity (relative to DMSO controls)
T25 construct: purchased Reaction Biology Corporation

ULK1 = biological target: T26, ULK1 (Homo sapiens, UniProt O75385); test: biochemical; details: read-out: % Enzyme Activity (relative to DMSO controls)
T26 construct: purchased Reaction Biology Corporation

PLK1 = biological target: T27, PLK1 (Homo sapiens, UniProt P53350); test: HotSpot kinase assay; format: biochemical; details: read-out: % Enzyme Activity (relative to DMSO controls)
T27 construct: purchased Reaction Biology Corporation

FGFR1 = biological target: T28, FGFR1 (Homo sapiens, UniProt P11362); test: HotSpot kinase assay; format: biochemical; details: read-out: % Enzyme Activity (relative to DMSO controls)
T28 construct: purchased Reaction Biology Corporation

MEK2 = biological target: T29, MEK2 (Homo sapiens, UniProt P36507); test: HotSpot kinase assay; format: biochemical; details: read-out: % Enzyme Activity (relative to DMSO controls)
T29 construct: purchased Reaction Biology Corporation

Akt (pAkt T308) = format: cell-based, monkey; details: 10µM
HSV-2(G) = test: synchronized infection (entry) assay, CaSki; format: cell-based
Procedure: To quantify viral entry, cells were synchronously infected by allowing virus to bind to cells at 4°C for 4 h, washed, and then transferred to 37 °C. CIMSS or control DMSO was added at the time of temperature shift. At indicated times post-temperature shift, the cells were treated with a low pH buffer to inactivate virus that had not penetrated, washed, overlaid with medium containing methyl cellulose and viral plaques were counted at 48 h. Entry was also assessed by immunoblotting nuclear extracts for VP16. […] Nuclear extracts were prepared after 1 h and analyzed by western blot with antibodies targeting VP16, histone H1 and golgin-97[5]. The non-nuclear fraction was also probed for golgin-97 as a positive control. […] After 1 or 4 h of incubation, the cells were fixed. Plasma membranes were stained using Image -IT^TM LIVE Plasma Membrane kit and nuclei were stained with DAPI (Thermo Fisher Scientific, Cat 134406). The percentage of GFP + nuclei was determined by counting ~200 cells over 3–4 fields. Images were obtained with Leica SP8 microscope (objective 63 × 1.4); xz images were captured with optical slice 0.6 µm, 25–30 slices per image.

MST4 = biological target: T30, MST4 (Homo sapiens, UniProt Q9P289); test: HotSpot kinase assay; format: biochemical; details: read-out: % Enzyme Activity (relative to DMSO controls)
T30 construct: purchased Reaction Biology Corporation

NLK = biological target: T31, NLK (Homo sapiens, UniProt Q9UBE8); test: HotSpot kinase assay; format: biochemical; details: read-out: % Enzyme Activity (relative to DMSO controls)
T31 construct: purchased Reaction Biology Corporation

ITK = biological target: T32, ITK (Homo sapiens, UniProt Q08881); test: HotSpot kinase assay; format: biochemical; details: read-out: % Enzyme Activity (relative to DMSO controls)
T32 construct: purchased Reaction Biology Corporation

[1] = Supplementary Table 1, read-out: IC50 (Molar concentration)
[2] = read-out: % Enzyme Activity (relative to DMSO controls), 10µM

T18 sequence (Q9Y243 whole entry): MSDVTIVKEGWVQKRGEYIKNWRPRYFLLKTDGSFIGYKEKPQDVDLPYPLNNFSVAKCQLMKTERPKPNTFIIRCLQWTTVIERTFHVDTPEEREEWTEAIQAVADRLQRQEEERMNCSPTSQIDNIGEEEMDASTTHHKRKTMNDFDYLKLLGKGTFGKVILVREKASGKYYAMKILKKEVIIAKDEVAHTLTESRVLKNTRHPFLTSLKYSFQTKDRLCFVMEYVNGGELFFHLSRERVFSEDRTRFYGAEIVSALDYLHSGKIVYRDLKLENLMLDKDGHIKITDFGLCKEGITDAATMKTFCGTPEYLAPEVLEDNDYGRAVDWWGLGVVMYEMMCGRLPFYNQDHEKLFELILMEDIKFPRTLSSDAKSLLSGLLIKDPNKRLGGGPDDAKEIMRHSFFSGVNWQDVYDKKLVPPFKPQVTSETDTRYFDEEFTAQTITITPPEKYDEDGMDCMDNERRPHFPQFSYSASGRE
T14 sequence (P00519 whole entry): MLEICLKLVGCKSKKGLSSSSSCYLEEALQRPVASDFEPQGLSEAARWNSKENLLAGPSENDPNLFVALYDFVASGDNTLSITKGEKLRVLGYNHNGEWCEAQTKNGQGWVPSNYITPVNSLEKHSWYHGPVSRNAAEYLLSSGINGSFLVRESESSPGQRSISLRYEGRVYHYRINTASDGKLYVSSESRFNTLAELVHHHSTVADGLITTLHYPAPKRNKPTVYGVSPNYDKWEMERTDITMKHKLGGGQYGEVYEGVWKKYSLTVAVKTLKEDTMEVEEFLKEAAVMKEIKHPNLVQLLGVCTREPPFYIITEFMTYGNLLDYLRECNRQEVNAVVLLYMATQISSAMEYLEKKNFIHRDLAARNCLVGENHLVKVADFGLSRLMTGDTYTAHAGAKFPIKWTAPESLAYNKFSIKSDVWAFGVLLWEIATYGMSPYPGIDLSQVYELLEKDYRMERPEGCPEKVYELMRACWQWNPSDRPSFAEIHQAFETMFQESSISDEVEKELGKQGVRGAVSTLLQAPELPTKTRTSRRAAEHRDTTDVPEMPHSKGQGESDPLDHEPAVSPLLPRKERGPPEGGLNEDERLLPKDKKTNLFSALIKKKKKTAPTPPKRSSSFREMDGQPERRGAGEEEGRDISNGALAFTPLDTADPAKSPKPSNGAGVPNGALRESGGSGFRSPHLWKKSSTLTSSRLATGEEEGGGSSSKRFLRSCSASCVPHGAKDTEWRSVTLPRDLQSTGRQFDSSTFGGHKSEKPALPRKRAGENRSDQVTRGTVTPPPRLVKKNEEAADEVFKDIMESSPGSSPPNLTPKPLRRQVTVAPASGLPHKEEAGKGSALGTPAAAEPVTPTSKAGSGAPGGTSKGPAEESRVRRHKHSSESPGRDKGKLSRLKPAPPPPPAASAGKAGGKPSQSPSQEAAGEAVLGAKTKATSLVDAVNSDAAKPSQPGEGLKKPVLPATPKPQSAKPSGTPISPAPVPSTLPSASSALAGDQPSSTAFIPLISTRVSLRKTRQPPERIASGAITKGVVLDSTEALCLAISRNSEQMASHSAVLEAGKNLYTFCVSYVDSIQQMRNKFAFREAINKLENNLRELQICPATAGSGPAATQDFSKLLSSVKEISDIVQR
T7 sequence (Q15139 whole entry): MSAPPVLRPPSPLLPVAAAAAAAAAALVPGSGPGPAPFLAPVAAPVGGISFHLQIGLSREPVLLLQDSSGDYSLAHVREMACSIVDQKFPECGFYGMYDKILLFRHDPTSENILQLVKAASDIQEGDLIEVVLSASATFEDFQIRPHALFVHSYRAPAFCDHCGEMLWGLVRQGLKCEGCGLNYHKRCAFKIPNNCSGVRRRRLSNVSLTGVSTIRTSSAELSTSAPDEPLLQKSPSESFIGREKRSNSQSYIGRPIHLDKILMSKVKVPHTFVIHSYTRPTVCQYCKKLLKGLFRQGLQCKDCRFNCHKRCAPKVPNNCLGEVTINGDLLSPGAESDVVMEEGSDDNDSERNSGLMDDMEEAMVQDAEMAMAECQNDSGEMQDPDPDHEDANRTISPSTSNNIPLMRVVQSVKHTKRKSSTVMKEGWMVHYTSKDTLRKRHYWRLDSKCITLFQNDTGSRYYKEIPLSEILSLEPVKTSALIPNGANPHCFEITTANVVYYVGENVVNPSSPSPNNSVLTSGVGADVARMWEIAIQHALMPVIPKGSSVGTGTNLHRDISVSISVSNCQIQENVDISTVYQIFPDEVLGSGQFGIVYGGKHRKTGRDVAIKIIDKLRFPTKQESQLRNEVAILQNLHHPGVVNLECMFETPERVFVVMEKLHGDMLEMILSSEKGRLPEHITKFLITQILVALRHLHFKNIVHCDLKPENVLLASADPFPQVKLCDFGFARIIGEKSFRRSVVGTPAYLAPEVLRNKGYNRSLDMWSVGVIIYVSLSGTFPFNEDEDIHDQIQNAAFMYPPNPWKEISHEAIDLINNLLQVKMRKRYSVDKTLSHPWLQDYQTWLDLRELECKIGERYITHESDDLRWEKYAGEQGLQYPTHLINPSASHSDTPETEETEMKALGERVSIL
T32 sequence (Q08881 whole entry): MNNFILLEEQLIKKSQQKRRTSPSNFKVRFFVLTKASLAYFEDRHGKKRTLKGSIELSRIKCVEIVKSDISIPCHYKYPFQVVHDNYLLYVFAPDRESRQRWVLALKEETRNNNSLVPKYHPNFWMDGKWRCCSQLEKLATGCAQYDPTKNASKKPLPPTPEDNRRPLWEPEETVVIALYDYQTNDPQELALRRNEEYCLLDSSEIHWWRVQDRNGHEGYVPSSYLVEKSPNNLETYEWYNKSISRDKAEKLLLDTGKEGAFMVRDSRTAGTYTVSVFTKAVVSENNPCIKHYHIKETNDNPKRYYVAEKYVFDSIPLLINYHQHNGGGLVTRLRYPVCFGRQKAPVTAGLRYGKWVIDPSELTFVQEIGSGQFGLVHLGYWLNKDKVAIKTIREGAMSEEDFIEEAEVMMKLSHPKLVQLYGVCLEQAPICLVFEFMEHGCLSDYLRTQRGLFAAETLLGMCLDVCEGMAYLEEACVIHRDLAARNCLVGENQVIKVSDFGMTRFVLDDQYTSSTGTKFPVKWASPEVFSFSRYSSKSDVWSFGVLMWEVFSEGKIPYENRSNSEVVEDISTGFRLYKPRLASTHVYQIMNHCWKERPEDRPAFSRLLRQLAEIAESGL
T31 sequence (Q9UBE8 whole entry): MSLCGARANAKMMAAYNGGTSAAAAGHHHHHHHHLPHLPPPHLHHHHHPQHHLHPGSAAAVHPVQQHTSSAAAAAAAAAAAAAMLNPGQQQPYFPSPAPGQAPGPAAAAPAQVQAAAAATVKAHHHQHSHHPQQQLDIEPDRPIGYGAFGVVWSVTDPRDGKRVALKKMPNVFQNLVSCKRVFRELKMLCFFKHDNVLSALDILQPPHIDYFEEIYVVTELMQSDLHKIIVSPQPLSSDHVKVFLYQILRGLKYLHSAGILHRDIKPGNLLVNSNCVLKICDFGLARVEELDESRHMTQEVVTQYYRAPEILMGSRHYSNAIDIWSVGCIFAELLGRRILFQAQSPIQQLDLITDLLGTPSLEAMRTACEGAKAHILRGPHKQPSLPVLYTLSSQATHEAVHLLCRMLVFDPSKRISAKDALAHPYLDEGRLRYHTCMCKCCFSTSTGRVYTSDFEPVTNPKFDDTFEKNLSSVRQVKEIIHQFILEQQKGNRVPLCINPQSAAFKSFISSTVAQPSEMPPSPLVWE
T5 sequence (Q13153 whole entry): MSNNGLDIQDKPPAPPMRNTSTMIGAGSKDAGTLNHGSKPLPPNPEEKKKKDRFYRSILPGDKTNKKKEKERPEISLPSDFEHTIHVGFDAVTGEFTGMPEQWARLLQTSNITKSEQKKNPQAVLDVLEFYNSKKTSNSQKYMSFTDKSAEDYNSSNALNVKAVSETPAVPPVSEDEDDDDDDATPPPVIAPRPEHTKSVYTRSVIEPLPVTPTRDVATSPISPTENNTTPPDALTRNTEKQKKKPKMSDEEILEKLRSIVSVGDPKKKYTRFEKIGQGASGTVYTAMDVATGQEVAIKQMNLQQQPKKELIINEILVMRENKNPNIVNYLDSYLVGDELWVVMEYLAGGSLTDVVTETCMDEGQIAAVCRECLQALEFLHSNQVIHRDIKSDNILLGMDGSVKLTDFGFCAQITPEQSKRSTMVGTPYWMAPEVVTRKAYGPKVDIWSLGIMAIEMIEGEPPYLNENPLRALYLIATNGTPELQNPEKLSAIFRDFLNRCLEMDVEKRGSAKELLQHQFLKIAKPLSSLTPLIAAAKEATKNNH
T12 sequence (P20794 whole entry): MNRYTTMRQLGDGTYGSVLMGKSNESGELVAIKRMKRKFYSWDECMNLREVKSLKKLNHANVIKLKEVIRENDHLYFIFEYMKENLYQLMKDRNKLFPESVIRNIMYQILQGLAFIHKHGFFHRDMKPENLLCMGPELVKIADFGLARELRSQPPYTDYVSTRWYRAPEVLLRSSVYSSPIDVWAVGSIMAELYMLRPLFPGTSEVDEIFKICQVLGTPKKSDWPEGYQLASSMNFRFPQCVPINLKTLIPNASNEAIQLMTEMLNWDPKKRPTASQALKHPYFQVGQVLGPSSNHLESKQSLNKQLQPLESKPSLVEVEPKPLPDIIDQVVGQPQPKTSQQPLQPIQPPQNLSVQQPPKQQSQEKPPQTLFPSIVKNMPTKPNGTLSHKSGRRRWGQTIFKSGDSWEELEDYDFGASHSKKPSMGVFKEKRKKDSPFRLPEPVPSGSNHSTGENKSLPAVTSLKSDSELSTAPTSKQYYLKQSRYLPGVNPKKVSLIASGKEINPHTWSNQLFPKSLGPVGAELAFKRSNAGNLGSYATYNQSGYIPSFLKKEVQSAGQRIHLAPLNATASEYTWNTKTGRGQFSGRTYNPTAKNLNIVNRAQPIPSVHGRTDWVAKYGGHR

SMILES: CO[C@@H]1[C@H](N(C)C(=O)CCC(=O)NCc2cn(CCCS(=O)(=O)O)nn2)C[C@H]2O[C@]1(C)n1c3ccccc3c3c4c(c5c6ccccc6n2c5c31)C(=O)NC4 [CIMSS]
- inhibition of cell growth (HaCat cells): no significant inhibition
- remaining activity at 10 µM (TAK1): 7.2%
- Recover % (MDCK-MDR1 cell): 96%
- remaining activity at 10 µM (LYN B): 2.95%
- remaining activity at 10 µM (EIF2AK2): 9.89%
- remaining activity at 10 µM (TESK2): 91.2%
- remaining activity at 10 µM (PAK1): 8.08%
- remaining activity at 10 µM (MUSK): 3.33%
- remaining activity at 10 µM (PKCmu/PRKD1): 30.3%
- remaining activity at 10 µM (CDK6/cyclin D1): 63%
- remaining activity at 10 µM (ERK2/MAPK1): 75.3%
- remaining activity at 10 µM (TNIK): 1.22%
- remaining activity at 10 µM (SNARK/NUAK2): 2.16%
- remaining activity at 10 µM (MAK): 13.2%
- remaining activity at 10 µM (PHKg1): 3.74%
- IC50 (ABL1; [1]): 143 nM
- remaining activity at 10 µM (ABL1; [2]): 5.18%
- remaining activity at 10 µM (STK22D/TSSK1): 2.71%
- remaining activity at 10 µM (NEK11): 52%
- remaining activity at 10 µM (Haspin): 49.5%
- IC50 (AKT3; [1]): 157 nM
- remaining activity at 10 µM (AKT3; [2]): 11.4%
- inhibition at 10 µM (AKT3; read-out: inhibition of Akt3): > 75%
- remaining activity at 10 µM (CAMK2b): 3.03%
- remaining activity at 10 µM (GCK/MAP4K2): 4.74%
- remaining activity at 10 µM (BLK): 0.34%
- remaining activity at 10 µM (P38g): 30.3%
- remaining activity at 10 µM (PLK3): 98.2%
- remaining activity at 10 µM (RAF1): 111%
- remaining activity at 10 µM (c-MET): 12.4%
- remaining activity at 10 µM (ULK1): 13.6%
- remaining activity at 10 µM (PLK1): 17.1%
- remaining activity at 10 µM (FGFR1): 6.31%
- remaining activity at 10 µM (MEK2): 68%
- extracellular phosphorylation of Akt (Akt (pAkt T308)): inhibited
- plaques counted at 48 h (HSV-2(G); 0.5 h post-temperature shift (Fig 3b source data)): 49 and 51
- plaques counted at 48 h (HSV-2(G); 1 h): 48 and 46
- plaques counted at 48 h (HSV-2(G); 2 h): 52 and 37
- remaining activity at 10 µM (MST4): 1.35%
- remaining activity at 10 µM (NLK): 73%
- remaining activity at 10 µM (ITK): 4.12%
